Laboratory results taken from ChEMBL document CHEMBL6078630, “Design, synthesis, and bioactivity investigation of novel cyclic lipopeptide antibiotics targeting top-priority multidrug-resistant gram-negative bacteria” (Eur J Med Chem, 2024).
Values after ≈ are worked out from the molar mass of the structure shown. Active and inactive are the calls of the source. The calls are words filed in the database; no cut-off is given here. Bridge positions count the residues as written; N and C are the ends. Square brackets hold non-standard residues; d marks the D form. Peptide text beside a SMILES is read from it. * marks the point of attachment. Heptanoyl(6-Me) = CC(C)CCCCC(=O)*; Dab = NCC[C@H](N)C(=O)O; Dap = NC[C@H](N)C(=O)O

What was measured:
Escherichia coli [1] = assay: Antibacterial activity against Escherichia coli ATCC BAA-2523 assessed as inhibition of bacterial growth incubated for 16 to 20 hrs by CLSI protocol based broth microdilution method; format: functional; settings: time 16-20 hrs
Escherichia coli [2] = assay: Antibacterial activity against carbapenem-resistant Escherichia coli ATCC BAA-2340 assessed as inhibition of bacterial growth incubated for 16 to 20 hrs by CLSI protocol based broth microdilution method; format: functional; settings: time 16-20 hrs
Pseudomonas aeruginosa [3] = assay: Antibacterial activity against carbapenem-resistant Pseudomonas aeruginosa clinical isolate 19-3 assessed as inhibition of bacterial growth incubated for 16 to 20 hrs by CLSI protocol based broth microdilution method; format: functional; settings: time 16-20 hrs
Acinetobacter baumannii [4] = assay: Antibacterial activity against Acinetobacter baumannii NCTC 13304 (OXA-27) assessed as inhibition of bacterial growth incubated for 16 to 20 hrs by CLSI protocol based broth microdilution method; format: functional; settings: time 16-20 hrs
Escherichia coli [5] = assay: Antibacterial activity against carbapenem-resistant Escherichia coli clinical isolate 231016w014 assessed as inhibition of bacterial growth incubated for 24 hrs by CLSI protocol based broth microdilution method; format: functional
Escherichia coli [6] = assay: Antibacterial activity against carbapenem-resistant Escherichia coli clinical isolate 231112E006B assessed as inhibition of bacterial growth incubated for 24 hrs by CLSI protocol based broth microdilution method; format: functional
Klebsiella pneumoniae [7] = assay: Antibacterial activity against carbapenem-resistant Klebsiella pneumoniae clinical isolate ets26 assessed as inhibition of bacterial growth incubated for 24 hrs by CLSI protocol based broth microdilution method; format: functional
Klebsiella pneumoniae [8] = assay: Antibacterial activity against carbapenem-resistant Klebsiella pneumoniae clinical isolate ets40 assessed as inhibition of bacterial growth incubated for 24 hrs by CLSI protocol based broth microdilution method; format: functional
Klebsiella pneumoniae [9] = assay: Antibacterial activity against carbapenem-resistant Klebsiella pneumoniae clinical isolate ets45 assessed as inhibition of bacterial growth incubated for 24 hrs by CLSI protocol based broth microdilution method; format: functional
Klebsiella pneumoniae [10] = assay: Antibacterial activity against carbapenem-resistant Klebsiella pneumoniae clinical isolate ets75 assessed as inhibition of bacterial growth incubated for 24 hrs by CLSI protocol based broth microdilution method; format: functional
Klebsiella pneumoniae [11] = assay: Antibacterial activity against carbapenem-resistant Klebsiella pneumoniae clinical isolate ets78 assessed as inhibition of bacterial growth incubated for 24 hrs by CLSI protocol based broth microdilution method; format: functional
Pseudomonas aeruginosa [12] = assay: Antibacterial activity against carbapenem-resistant Pseudomonas aeruginosa clinical isolate ets5 assessed as inhibition of bacterial growth incubated for 24 hrs by CLSI protocol based broth microdilution method; format: functional
Pseudomonas aeruginosa [13] = assay: Antibacterial activity against carbapenem-resistant Pseudomonas aeruginosa clinical isolate ets15 assessed as inhibition of bacterial growth incubated for 24 hrs by CLSI protocol based broth microdilution method; format: functional
Pseudomonas aeruginosa [14] = assay: Antibacterial activity against carbapenem-resistant Pseudomonas aeruginosa clinical isolate ets22 assessed as inhibition of bacterial growth incubated for 24 hrs by CLSI protocol based broth microdilution method; format: functional
Pseudomonas aeruginosa [15] = assay: Antibacterial activity against carbapenem-resistant Pseudomonas aeruginosa clinical isolate ets38 assessed as inhibition of bacterial growth incubated for 24 hrs by CLSI protocol based broth microdilution method; format: functional
Pseudomonas aeruginosa [16] = assay: Antibacterial activity against carbapenem-resistant Pseudomonas aeruginosa clinical isolate ets55 assessed as inhibition of bacterial growth incubated for 24 hrs by CLSI protocol based broth microdilution method; format: functional
Pseudomonas aeruginosa [17] = assay: Antibacterial activity against carbapenem-resistant Pseudomonas aeruginosa clinical isolate ets84 assessed as inhibition of bacterial growth incubated for 24 hrs by CLSI protocol based broth microdilution method; format: functional
Pseudomonas aeruginosa [18] = assay: Antibacterial activity against carbapenem-resistant Pseudomonas aeruginosa clinical isolate ets104 assessed as inhibition of bacterial growth incubated for 24 hrs by CLSI protocol based broth microdilution method; format: functional
Acinetobacter baumannii [19] = assay: Antibacterial activity against carbapenem-resistant Acinetobacter baumannii clinical isolate ets104 assessed as inhibition of bacterial growth incubated for 24 hrs by CLSI protocol based broth microdilution method; format: functional
Acinetobacter baumannii [20] = assay: Antibacterial activity against carbapenem-resistant Acinetobacter baumannii clinical isolate ets171 assessed as inhibition of bacterial growth incubated for 24 hrs by CLSI protocol based broth microdilution method; format: functional
Pseudomonas aeruginosa [21] = assay: Antibacterial activity against Pseudomonas aeruginosa ATCC 27853 assessed as decrease in bacterial concentration at 0.5 to 2 times of MIC measured after 1 hrs by time-kill kinetics assay; format: functional, organism-based
[22] = Nephrotoxicity against Sprague-Dawley rat assessed as increase in BUN level at 4 mg/kg, iv administered for 7 days by fully automated biochemistry analyzer XR200PLUS; format: toxicity, organism-based; settings: in vivo, 168 h, time 7 day
[23] = C0 in male Sprague-Dawley rat at 3 mg/kg, iv measured after 24 hrs by LC-MS/MS analysis; format: ADME, organism-based; settings: in vivo
[24] = Half-life in male Sprague-Dawley rat at 3 mg/kg, iv measured after 24 hrs by LC-MS/MS analysis; format: ADME, organism-based; settings: in vivo
[25] = Volume of distribution in male Sprague-Dawley rat at 3 mg/kg, iv measured after 24 hrs by LC-MS/MS analysis; format: ADME, organism-based; settings: in vivo
[26] = MRT in male Sprague-Dawley rat at 3 mg/kg, iv measured after 24 hrs by LC-MS/MS analysis; format: ADME, organism-based; settings: in vivo
Escherichia coli [27] = assay: Antibacterial activity against Escherichia coli ATCC BAA-2523 infected in ICR mouse model assessed as survival rate at 4 mg/kg, iv administered at 1 and 6 hrs post-infection and measured after 7 days relative to control; format: functional; settings: ATCC BAA-2523, 168 h, time 7 day
Klebsiella pneumoniae [28] = assay: Antibacterial activity against carbapenem-resistant Klebsiella pneumoniae ATCC BAA-1705 infected in ICR mouse model administered intravenously with compound at 1 and 6 hrs post-infection and measured after 7 days; format: functional; settings: ATCC BAA-1705, 168 h, route iv, time 7 day
Pseudomonas aeruginosa [29] = assay: Antibacterial activity against Pseudomonas aeruginosa ATCC 27853 infected in ICR mouse model administered intravenously with compound at 1 and 6 hrs post-infection and measured after 7 days; format: functional; settings: ATCC 27853, 168 h, route iv, time 7 day
Pseudomonas aeruginosa [30] = assay: Antibacterial activity against Pseudomonas aeruginosa ATCC 27853 infected in ICR mouse model infected in ICR mouse model assessed as survival rate at 10 mg/kg, iv administered at 1 and 6 hrs post-infection and measured after 7 days relative to control; format: functional; settings: ATCC 27853, 168 h, time 7 day
Lipopolysaccharide (LPS) [31] = assay: Binding affinity to Escherichia coli LPS assessed as dissociation constant by SPR analysis
Lipopolysaccharide (LPS) [32] = assay: Binding affinity to Pseudomonas aeruginosa LPS assessed as dissociation constant by SPR analysis
Pseudomonas aeruginosa [33] = assay: Potentiation of rifampicin induced antibacterial activity against Pseudomonas aeruginosa ATCC 27853 assessed as rifampicin MIC at 0.004 microg/ml incubated 24 hrs by cation adjusted Mueller-Hinton broth based method; format: functional; settings: dose 0.004 µg/ml
Pseudomonas aeruginosa [34] = assay: Potentiation of rifampicin induced antibacterial activity against Pseudomonas aeruginosa ATCC 27853 assessed as rifampicin MIC at 0.06 microg/ml incubated 24 hrs by cation adjusted Mueller-Hinton broth based method; format: functional; settings: dose 0.06 µg/ml
Pseudomonas aeruginosa [35] = assay: Potentiation of rifampicin induced antibacterial activity against Pseudomonas aeruginosa ATCC 27853 assessed as rifampicin MIC at 0.125 microg/ml incubated 24 hrs by cation adjusted Mueller-Hinton broth based method; format: functional; settings: dose 0.125 µg/ml

## CC(C)CCCCC(=O)N[C@@H](CCN)C(=O)N[C@H](C(=O)N[C@@H](CN)C(=O)N[C@H]1CCNC(=O)[C@H]([C@@H](C)O)NC(=O)[C@H](CCN)NC(=O)[C@H](CCN)NC(=O)[C@H]([C@@H](C)O)NC(=O)[C@@H](Cc2ccccc2)NC(=O)[C@H](CCN)NC1=O)[C@@H](C)O ({Heptanoyl(6-Me)}-[Dab]T[Dap][Dab][Dab][dF]T[Dab][Dab]T; lactam 4-C)
Escherichia coli [1]
  MIC: ≤ 0.03 µg/mL
Escherichia coli [2]
  MIC: ≤ 0.03 µg/mL
Pseudomonas aeruginosa [3]
  MIC: 0.125 µg/mL (≈ 0.107 µM)
Acinetobacter baumannii [4]
  MIC: ≤ 0.03 µg/mL
Escherichia coli [5]
  MIC: < 0.06 µg/mL
Escherichia coli [6]
  MIC: < 0.06 µg/mL
Klebsiella pneumoniae [7]
  MIC: 0.5 µg/mL (≈ 0.43 µM)
Klebsiella pneumoniae [8]
  MIC: 0.25 µg/mL (≈ 0.215 µM)
Klebsiella pneumoniae [9]
  MIC: 0.25 µg/mL (≈ 0.215 µM)
Klebsiella pneumoniae [10]
  MIC: 0.5 µg/mL (≈ 0.43 µM)
Klebsiella pneumoniae [11]
  MIC: 0.5 µg/mL (≈ 0.43 µM)
Pseudomonas aeruginosa [12]
  MIC: 1 µg/mL (≈ 0.86 µM)
Pseudomonas aeruginosa [13]
  MIC: 0.5 µg/mL (≈ 0.43 µM)
Pseudomonas aeruginosa [14]
  MIC: 2 µg/mL (≈ 1.72 µM)
Pseudomonas aeruginosa [15]
  MIC: 1 µg/mL (≈ 0.86 µM)
Pseudomonas aeruginosa [16]
  MIC: 1 µg/mL (≈ 0.86 µM)
Pseudomonas aeruginosa [17]
  MIC: 0.5 µg/mL (≈ 0.43 µM)
Pseudomonas aeruginosa [18]
  MIC: 1 µg/mL (≈ 0.86 µM)
Acinetobacter baumannii [19]
  MIC: 0.06 µg/mL (≈ 0.0516 µM)
Acinetobacter baumannii [20]
  MIC: 0.5 µg/mL (≈ 0.43 µM)
Pseudomonas aeruginosa [21]
  Activity: Active
[22]
  Activity: Non-toxic
[23]
  C0 at 24 h: 9810 ng/mL
[24]
  half-life: 133 min
[25]
  Vd: 0.78 L/kg
[26]
  MRT: 1.17 h
Escherichia coli [27]
  survival at 4 mg/kg: 100%
Klebsiella pneumoniae [28]
  ED50: 0.32 mg/kg
Pseudomonas aeruginosa [29]
  ED50: 6.38 mg/kg
Pseudomonas aeruginosa [30]
  survival at 10 mg/kg: 100%
Lipopolysaccharide (LPS) [31]
  Kd: 30 nM
Lipopolysaccharide (LPS) [32]
  Kd: 11.5 µM
Pseudomonas aeruginosa [33]
  MIC: 32 µg/mL
Pseudomonas aeruginosa [34]
  MIC: 0.25 µg/mL
Pseudomonas aeruginosa [35]
  MIC: ≤ 0.06 µg/mL
